# From patent US20200080052A1, “METHOD OF REDUCING CHROMOSOME SEGREGATION ERROR IN CELLS OF THE EARLY EMBRYO” (CENTRE HOSPITALIER DE L'UNIVERSITÉ DE MONTRÉAL, priority 2018, published 2020)
# Legend:
# [1] = system: mouse embryos; assay: Live imaging of chromosome segregation dynamics in H2B:RFP-expressing embryos; format: cell-based; details: for change in mitosis duration: 10 nM nocodazole
# Protocol: (§1) Embryo collection, culture and chemical treatments. All experiments were approved by the Centre de Recherche du Centre Hospitalier de l'Université de Montréal (CRCHUM) Comité Institutionnel de Protection des Animaux (CIPA). Two-cell embryos were obtained from superovulated 2-3-month-old CD-1 female mice mated with CD-1 males. Embryos were collected in M2 media and cultured in KSOM media drops covered in mineral oil at 37° C. in 5% CO2. For chemical treatments, media was supplemented with the following compounds: AZ3146 (20 μM), GSK923295 (various concentrations), nocodazole (various concentrations), Cytochalasin B (5 μg/ml), MG132 (25 μM), proTAME (various concentrations). All drug stocks are dissolved in DMSO. For experiments involving proTAME, embryos were cultured without oil in 500 μL of media in 4-well plates.
# (§2) All imaging was performed on a Leica™ SP8 confocal microscope with HyD detectors. For live imaging embryos were placed in a heated top-stage incubator with CO2 supply and imaged with a 20×0.75 NA objective as previously described (Vázquez-Diez et al., 2016). All imaging was performed in ˜2 μL drops under mineral oil, for experiments involving proTAME, embryos were cultured in Ibidi micro-insert wells mounted on a glass-bottom dish with distilled water and the inventors' setup was modified to provide humidified CO2 gas supply, previously described in extensive detail (Vázquez-Diez et al., 2018).
# (§3) Z-stack images of embryos (˜50 μm) with step size 2 μm were obtained at a time interval of 30 sec for experiments concerning H2BRFP only, 2 min for H2B:RFP-GAP43:GFP, and 3 min H2B:RFP-Mad1:EGFP experiments. For live-cell experiments at two-cells, eight cell, morula and blastocyst, imaging was started at ˜48 h, 72 h, 84 h and ˜96 h post-hCG administration and mating, respectively. For immunofluorescence embryos were fixed in 2% PFA in PBS (20 min) and permeabilised in 0.25% Triton™ X-100 in PBS (10 min), for Mad2 immunofluorescence embryos were fixed for 15 min in PHEM buffer containing 2% PFA and 0.05% Triton™ X-100, and permeabilised in 0.05% Triton™ X in PHEM buffer for 15 min. Blocking was performed in 3% bovine serum albumin in PBS, for 1 hr at 37° C. or overnight at 4° C. Primary antibodies used were rabbit anti-Mad2 (1:300), mouse anti-alpha-Tubulin (1:1000), anti-rabbit and anti-mouse AlexaFluor secondaries were used at 1:1000 dilution. Alexa-555-Phalloidin (1:300) and Hoechst (1:1000) were used to visualize F-actin and DNA, respectively. Briefly, immunofluorescence confocal imaging was performed on a Leica™ SP8 microscope using a 63×1.4 NA oil objective lens, using a 1.5 μm optical section and acquiring Z-stacks with a step size of 1.5 μm, described in more detail in (Vázquez-Diez et al., 2018). In fixed-cell experiments involving GSK923295 and nocodazole embryos were exposed from the 8-cell stage, ˜72 h post-hCG and mating for ˜16 h and immediately fixed. Blastocyst immunofluorescence analysis was performed at late blastocyst stage, ˜120 h post-hCG.
# (§4) All image analysis was performed using Fiji software. Time-lapse Z-stacks were examined to determine mitosis duration and identify chromosome alignment and segregation errors. Spindle length measurements were performed measuring the distance between spindle poles, using Pythagoras' theorem where spindle poles were located on different Z-slices. Mad2 Immunofluorescence was quantified by subtracting nuclear envelope and background maximum grey values. To calculate cell volume for each cell at metaphase, areas delineated by the cell membrane (GAP43:GFP signal) were manually traced and measured at each Z-slice, the sum of the areas was multiplied by the step size (2 μm). All data analysis was performed using GraphPad™ Prism, statistical test used were accordingly noted in figures, α=0.05.
# [2] = system: mouse embryos; assay: Culture to blastocyst and immunofluorescence analysis (development, cell numbers, micronuclei per cell); format: cell-based; details: for micronuclei per cell in blastocyst: 2-cell stage to blastocyst, controls 0.022, P<0.05; for number of micronuclei compared to controls: P<0.01
# Protocol: as §1, §3, §4
# [3] = system: mouse embryos; assay: Fixed-cell analysis of embryos after ~16 h exposure from the 8-cell stage (mitotic index, misaligned chromosomes, Mad2); format: cell-based; details: for metaphase cells with multiple misaligned chromosomes: morulae, 16 hour exposure
# Protocol: as §1, §3, §4
# [4] = system: mouse embryos; assay: Cytoplasmic removal and live imaging of H2B:RFP-GAP43:GFP embryos (mitosis duration vs cell volume); format: cell-based; details: 10 nM nocodazole, un-manipulated or cytoplasmically reduced
# Protocol: (§5) All micromanipulations were performed on a Leica™ DM14000 inverted microscope fitted with Narashige micromanipulators. […] Embryos where thoroughly washed in over a dozen drops of M2 media prior to transfer and incubation in equilibrated KSOM medium for at least 2 hours prior to imaging to allow them to recover from the cytoplasmic removal procedure. Microinjections were performed as described previously (Nakagawa and FitzHarris, 2016; Vázquez-Diez and FitzHarris, 2018; Vázquez-Diez et al., 2016). cRNA was synthesized using mMessenger Machine kit (Ambion) as previously (Nakagawa et al., 2017; Vázquez-Diez et al., 2018), from the following plasmids; pRN4-H2B:RFP, psC2-GAP43:GFP, MajSatTALE:mClover (pTALYM3B15)(Miyanari et al., 2013).
# All imaging was performed on a Leica™ SP8 confocal microscope with HyD detectors. For live imaging embryos were placed in a heated top-stage incubator with CO2 supply and imaged with a 20×0.75 NA objective as previously described (Vázquez-Diez et al., 2016). […]
# All image analysis was performed using Fiji software. […] Mad2 Immunofluorescence was quantified by subtracting nuclear envelope and background maximum grey values. To calculate cell volume for each cell at metaphase, areas delineated by the cell membrane (GAP43:GFP signal) were manually traced and measured at each Z-slice, the sum of the areas was multiplied by the step size (2 μm). […]
# [5] = system: oocytes; assay: Polar body extrusion (PBE) of meiosis-I in microinjected oocytes; format: cell-based, mouse; details: oocytes microinjected with Mad2 MO vs Control MO
# [6] = system: mouse embryos; assay: Live imaging of H2B:RFP and Mad1:EGFP-expressing embryos; format: cell-based; details: 500 nM GSK923295
# Protocol: as §5
# as §2, with “2018). […]” for “2018).”
# [7] = proTAME 0.01 nM-100 nM from the 2-cell stage
# [8] = 500 nM GSK923295, 8-16 cell transition
compound,measurement,setting,value
COC(=O)[C@H](CCCN/C(=N\C(=O)OCOC(=O)Cc1ccccc1)NC(=O)OCOC(=O)Cc1ccccc1)NS(=O)(=O)c1ccc(C)cc1 [proTAME],extension of mitosis duration,[1]; 10 nM proTAME vs DMSO,19%
same,increase in duration of mitosis,[1]; 10 nM proTAME vs DMSO,~10 min
same,incidence of misaligned chromosomes at anaphase onset,"[1]; 10 nM proTAME, control 28%, P=0.025",16%
same,duration of mitosis,"[1]; 10 nM proTAME, morula stage, control 51.7±1.4, P<0.0001",61.7 ± 2.3 min
same,micronuclei per cell in blastocyst,[2]; 10 nM proTAME,0.013 micronuclei per cell
same,micronuclei per cell in blastocyst,"[2]; ""nM"" proTAME (figure missing)",0.012 micronuclei per cell
same,blastocyst cell number,[2]; [7],did not affect blastocyst cell number
same,embryo development to blastocyst,[2]; [7],permissive of development to blastocyst
same,embryo development to blastocyst,[2]; proTAME 1-10 μM from the 2-cell stage,prevented embryo development to blastocyst
AZ3146,duration of mitosis,"[1]; 20 μM AZ3146, 16-32C transition, control 53±3 mins, P<0.0001",33 ± 1 min
same,chromosomes remaining misaligned at anaphase onset,"[1]; 20 μM AZ3146, control 24%, P<0.0001",63%
same,blastocyst cell numbers,[2]; AZ3146 (20 μM),Neither treatment prevented development to blastocyst or altered cell numbers
same,development to blastocyst,[2]; AZ3146 (20 μM),Neither treatment prevented development to blastocyst
same,number of micronuclei compared to controls,[2]; AZ3146-treated embryos,doubled
same,reversal of nocodazole-induced mitotic arrest,[3]; 100 nM nocodazole and 20 μM AZ3146,the arrest was reversible
COC(=O)Nc1nc2ccc(C(=O)c3cccs3)cc2[nH]1 [nocodazole],change in mitosis duration,[1]; blastocysts (~32-64 cell stage),prolonged mitosis appreciably
same,change in mitosis duration,[1]; morulae (8-16 cell stage),only a minimal extension of mitosis
same,change in mitosis duration,[1]; two-cell stage,prolonged mitosis appreciably
same,Anaphase lagging chromosomes,[1]; nocodazole-treated (10 nM) morulae,19 % of divisions
same,change in mitosis duration,[4]; morulae,not in morulae
same,change in mitosis duration,[4]; two-cell stage,extended mitosis at the two-cell stage
same,mitotic index,"[3]; 100 nM nocodazole, 16-hour exposure",40%
same,mitotic index,"[3]; 1 μM nocodazole, 16-hour exposure",95%
same,Mad2 at kinetochores,[3]; nocodazole-treated cells,Mad2 was evident at kinetochores
Cc1ncc([N+](=O)[O-])n1CCOC(=O)NC(Nc1ncccn1)C(Cl)(Cl)Cl (stereo not drawn) [APCin],micronuclei,[2]; APCin 10 μM,reduction in micronuclei
"Mad2 MO: morpholino oligonucleotide against Mad2, 5′-GCTCTCGGGCGAGCTGCTGTGCCAT-3′ (Gene tools LLC) (all phosphorodiamidate morpholino (PMO))",timing of meiosis-I (polar body extrusion),[5],characteristic acceleration of meiosis-I
same,blastocyst cell numbers,[2]; Mad2 MO microinjected,Neither treatment prevented development to blastocyst or altered cell numbers
same,development to blastocyst,[2]; Mad2 MO microinjected,Neither treatment prevented development to blastocyst
same,number of micronuclei compared to controls,[2]; Mad2 MO-injected embryos vs Control MO,doubled
CC(C)Oc1ccc(C(=O)N[C@H](CNC(=O)CN(C)C)Cc2ccc(-c3cn4cccc([C@H](C)O)c4n3)cc2)cc1Cl [GSK923295],"number of severely misaligned chromosomes at anaphase onset (span, all cases)",[1]; [8],"at least one, and as many as nine"
same,severely misaligned chromosomes at anaphase onset (mean),[1]; [8],3.6±0.3 per cell
same,NEBD to metaphase and metaphase to anaphase times,"[1]; 500 nM GSK, eight- to sixteen-cell division",extended
same,misaligned chromosomes at anaphase onset harbouring Mad1:GFP at kinetochores,[6],80%
same,misaligned chromosomes at anaphase onset (mean),[6]; H2B:RFP and Mad1:EGFP-expressing embryos,3.5±0.4 per cell
same,mitotic index,[3]; 500 nM GSK923295,23%
same,metaphase cells with multiple misaligned chromosomes,[3]; 500 nM GSK923295,93%
same,mitotic arrest with simultaneous nocodazole,"[3]; 1 μM nocodazole + 500 nM GSK923295, 16 hr",mounted a robust mitotic arrest
same,mitotic index,[3]; 5 μM GSK923295,12%
same,metaphase cells with multiple misaligned chromosomes,[3]; 5 μM GSK923295,100%
